Measurements taken from PubChem BioAssay AID226 (DTP/NCI, 2004).
Values joined by “and” are separate entries in the source; they are usually repeats but may differ in a detail not shown here. Equal values may be shown once. Toxic doses and inconclusive results are not listed.

Test system: B6C3F1 mice, intracerebral ependymoblastoma, median survival T/C
Experiment: NCI In Vivo Anticancer Drug Screen. Data for tumor model Ependymoblastoma (intracerebral) in B6C3F1 mice
Conditions: endpoint: median survival time, higher = longer survival
Experimental: The antitumor activity of compounds was measured in mice bearing transplantable tumors. Survival or tumor size were measured and the results are expressed as the measurement made in the treated group (T) divided by the measurement made in the vehicle treated control group (C). The tumor model used in this assay is Ependymoblastoma (intracerebral) in B6C3F1 mice

[1] = dose: 50.0 mg/kg/injection, schedule: Q01DX005 (ip), vehicle: Klucel (hydroxypropylcellulose) (HPC)
[2] = dose: 100.0 mg/kg/injection, schedule: Q01DX005 (ip), vehicle: Klucel (hydroxypropylcellulose) (HPC)
[3] = dose: 200.0 mg/kg/injection, schedule: Q01DX005 (ip), vehicle: Klucel (hydroxypropylcellulose) (HPC)
[4] = dose: 400.0 mg/kg/injection, schedule: Q01DX005 (ip), vehicle: Klucel (hydroxypropylcellulose) (HPC)
[5] = dose: 16.0 mg/kg/injection, schedule: Q01DX005 (ip), vehicle: saline with Tween-80
[6] = dose: 32.0 mg/kg/injection, schedule: Q01DX005 (ip), vehicle: saline with Tween-80
[7] = dose: 64.0 mg/kg/injection, schedule: Q01DX005 (ip), vehicle: Klucel (hydroxypropylcellulose) (HPC)
[8] = dose: 64.0 mg/kg/injection, schedule: Q01DX005 (ip), vehicle: saline with Tween-80
[9] = dose: 128.0 mg/kg/injection, schedule: Q01DX005 (ip), vehicle: Klucel (hydroxypropylcellulose) (HPC)
[10] = dose: 128.0 mg/kg/injection, schedule: Q01DX005 (ip), vehicle: saline with Tween-80
[11] = dose: 256.0 mg/kg/injection, schedule: Q01DX005 (ip), vehicle: Klucel (hydroxypropylcellulose) (HPC)
[12] = dose: 256.0 mg/kg/injection, schedule: Q01DX005 (ip), vehicle: saline with Tween-80

COC1OC(CNC(=O)N(C)N=O)C(O)C(O)C1O (configuration not stated)
T/C (dose: 25.0 mg/kg/injection, schedule: Q01DX005 (ip), vehicle: saline): 124 % of control
T/C (dose: 50.0 mg/kg/injection, schedule: Q01DX005 (ip), vehicle: saline): 121 % of control
T/C (dose: 400.0 mg/kg/injection, schedule: Q01DX005 (ip), vehicle: saline): 164 % of control

COc1ccc(C(=O)/C(Br)=C/C(=O)O)cc1
T/C (dose: 10.0 mg/kg/injection, schedule: Q01DX005 (ip), vehicle: saline): 92 % of control and 104 % of control
T/C (dose: 20.0 mg/kg/injection, schedule: Q01DX005 (ip), vehicle: saline): 96 % of control and 103 % of control
T/C (dose: 40.0 mg/kg/injection, schedule: Q01DX005 (ip), vehicle: saline): 94 % of control and 104 % of control

c1cc2n(n1)CCN2
T/C (dose: 32.0 mg/kg/injection, schedule: Q01DX005 (ip), vehicle: water): 93 % of control and 88 % of control
T/C (dose: 32.0 mg/kg/injection, schedule: Q#A X006 (ip), vehicle: water): 100 % of control
T/C (dose: 64.0 mg/kg/injection, schedule: Q01DX001 (ip), vehicle: water): 93 % of control and 94 % of control
T/C (dose: 64.0 mg/kg/injection, schedule: Q01DX001 (oral), vehicle: water): 100 % of control and 106 % of control
T/C (dose: 64.0 mg/kg/injection, schedule: Q01DX005 (ip), vehicle: water): 102 % of control and 104 % of control
T/C (dose: 64.0 mg/kg/injection, schedule: Q01DX005 (oral), vehicle: water): 98 % of control
T/C (dose: 64.0 mg/kg/injection, schedule: Q#A X002 (ip), vehicle: water): 98 % of control
T/C (dose: 64.0 mg/kg/injection, schedule: Q#A X004 (ip), vehicle: water): 94 % of control
T/C (dose: 64.0 mg/kg/injection, schedule: Q#A X006 (ip), vehicle: water): 102 % of control
T/C (dose: 128.0 mg/kg/injection, schedule: Q01DX001 (ip), vehicle: water): 92 % of control and 93 % of control
T/C (dose: 128.0 mg/kg/injection, schedule: Q01DX001 (oral), vehicle: water): 103 % of control and 108 % of control
T/C (dose: 128.0 mg/kg/injection, schedule: Q01DX005 (ip), vehicle: water): 91 % of control and 113 % of control
T/C (dose: 128.0 mg/kg/injection, schedule: Q01DX005 (oral), vehicle: water): 104 % of control
T/C (dose: 128.0 mg/kg/injection, schedule: Q#A X002 (ip), vehicle: water): 100 % of control
T/C (dose: 128.0 mg/kg/injection, schedule: Q#A X004 (ip), vehicle: water): 109 % of control
T/C (dose: 128.0 mg/kg/injection, schedule: Q#A X006 (ip), vehicle: water): 102 % of control
T/C (dose: 256.0 mg/kg/injection, schedule: Q01DX001 (ip), vehicle: water): 92 % of control and 100 % of control
T/C (dose: 256.0 mg/kg/injection, schedule: Q01DX001 (oral), vehicle: water): 98 % of control and 100 % of control
T/C (dose: 256.0 mg/kg/injection, schedule: Q01DX005 (ip), vehicle: water): 106 % of control
T/C (dose: 256.0 mg/kg/injection, schedule: Q01DX005 (oral), vehicle: water): 116 % of control
T/C (dose: 256.0 mg/kg/injection, schedule: Q#A X002 (ip), vehicle: water): 98 % of control
T/C (dose: 256.0 mg/kg/injection, schedule: Q#A X006 (ip), vehicle: water): 115 % of control
T/C (dose: 512.0 mg/kg/injection, schedule: Q01DX001 (ip), vehicle: water): 106 % of control and 122 % of control
T/C (dose: 512.0 mg/kg/injection, schedule: Q01DX001 (oral), vehicle: water): 103 % of control and 121 % of control
T/C (dose: 1024.0 mg/kg/injection, schedule: Q01DX001 (ip), vehicle: water): 109 % of control

CC(=O)Nc1ccc(/C=N/NC(N)=S)cc1
T/C [1]: 93 % of control
T/C [2]: 91 % of control
T/C [3]: 90 % of control
T/C [4]: 91 % of control
T/C (dose: 800.0 mg/kg/injection, schedule: Q01DX005 (ip), vehicle: Klucel (hydroxypropylcellulose) (HPC)): 112 % of control

C[C@]12C=CC(=O)C=C1CC[C@@H]1[C@@H]2CC[C@]2(C)OC(=O)CC[C@@H]12
T/C (dose: 8.0 mg/kg/injection, schedule: Q01DX005 (ip), vehicle: Klucel (hydroxypropylcellulose) (HPC)): 98 % of control and 100 % of control
T/C (dose: 8.0 mg/kg/injection, schedule: Q01DX005 (ip), vehicle: saline with Tween-80): 100 % of control and 113 % of control
T/C (dose: 16.0 mg/kg/injection, schedule: Q01DX005 (ip), vehicle: Klucel (hydroxypropylcellulose) (HPC)): 101 % of control and 106 % of control
T/C [5]: 97 % of control and 110 % of control
T/C (dose: 32.0 mg/kg/injection, schedule: Q01DX005 (ip), vehicle: Klucel (hydroxypropylcellulose) (HPC)): 94 % of control and 95 % of control
T/C [6]: 97 % of control and 105 % of control
T/C [7]: 98 % of control and 101 % of control
T/C [8]: 97 % of control and 105 % of control
T/C [9]: 96 % of control and 86 % of control
T/C [10]: 96 % of control and 108 % of control
T/C [11]: 90 % of control
T/C [12]: 105 % of control

[Cl][Pt+2][Cl].[NH-]C1CCC1.[NH-]C1CCC1
T/C (dose: 10.0 mg/kg/injection, schedule: Q01DX005 (ip), vehicle: dextrose): 103 % of control
T/C (dose: 20.0 mg/kg/injection, schedule: Q01DX005 (ip), vehicle: dextrose): 103 % of control
T/C (dose: 80.0 mg/kg/injection, schedule: Q01DX005 (ip), vehicle: dextrose): 90 % of control

O=P1(NCCCl)OCCC(OO)N1CCCl (configuration not stated)
T/C (dose: 40.0 mg/kg/injection, schedule: Q01DX001 (ip), vehicle: Klucel (hydroxypropylcellulose) (HPC)): 106 % of control and 119 % of control
T/C (dose: 80.0 mg/kg/injection, schedule: Q01DX001 (ip), vehicle: Klucel (hydroxypropylcellulose) (HPC)): 115 % of control
T/C (dose: 240.0 mg/kg/injection, schedule: Q01DX001 (ip), vehicle: Klucel (hydroxypropylcellulose) (HPC)): 150 % of control

CC/C(=C(/CC)c1ccc(O)cc1)c1ccc(O)cc1
T/C [5]: 102 % of control
T/C [6]: 102 % of control
T/C [8]: 109 % of control
T/C [10]: 104 % of control

Nc1ncnc2c1ncn2C1OC(CO)C(O)C1O (configuration not stated)
T/C [7]: 101 % of control
T/C [9]: 92 % of control
T/C [11]: 96 % of control
T/C (dose: 512.0 mg/kg/injection, schedule: Q01DX005 (ip), vehicle: Klucel (hydroxypropylcellulose) (HPC)): 94 % of control
T/C (dose: 1024.0 mg/kg/injection, schedule: Q01DX005 (ip), vehicle: Klucel (hydroxypropylcellulose) (HPC)): 98 % of control

ClC1C(Cl)C(Cl)C(Cl)C(Cl)C1Cl (configuration not stated)
T/C (dose: 12.5 mg/kg/injection, schedule: Q01DX005 (ip), vehicle: Klucel (hydroxypropylcellulose) (HPC)): 100 % of control
T/C (dose: 25.0 mg/kg/injection, schedule: Q01DX005 (ip), vehicle: Klucel (hydroxypropylcellulose) (HPC)): 107 % of control and 108 % of control
T/C [1]: 95 % of control and 102 % of control
T/C [2]: 117 % of control and 118 % of control
T/C [3]: 98 % of control and 107 % of control
T/C [4]: 107 % of control

CC([NH-])C[NH-].[Cl][Pt+2][Cl] (configuration not stated)
T/C (dose: 2.0 mg/kg/injection, schedule: Q01DX005 (ip), vehicle: dextrose): 94 % of control

NC(C/[N+]([O-])=N/O)C(=O)O (configuration not stated)
T/C (dose: 7.0 mg/kg/injection, schedule: Q01DX005 (ip), vehicle: saline with Tween-80): 111 % of control
T/C (dose: 12.5 mg/kg/injection, schedule: Q01DX009 (ip), vehicle: Klucel (hydroxypropylcellulose) (HPC)): 110 % of control
T/C (dose: 14.0 mg/kg/injection, schedule: Q01DX005 (ip), vehicle: saline with Tween-80): 109 % of control
T/C [5]: 114 % of control
T/C (dose: 25.0 mg/kg/injection, schedule: Q01DX009 (ip), vehicle: Klucel (hydroxypropylcellulose) (HPC)): 119 % of control
T/C (dose: 28.0 mg/kg/injection, schedule: Q01DX005 (ip), vehicle: saline with Tween-80): 118 % of control
T/C [6]: 118 % of control
T/C (dose: 50.0 mg/kg/injection, schedule: Q01DX009 (ip), vehicle: Klucel (hydroxypropylcellulose) (HPC)): 112 % of control
T/C (dose: 56.0 mg/kg/injection, schedule: Q01DX005 (ip), vehicle: saline with Tween-80): 119 % of control
T/C [8]: 117 % of control
T/C (dose: 112.0 mg/kg/injection, schedule: Q01DX005 (ip), vehicle: saline with Tween-80): 122 % of control
T/C [12]: 109 % of control
